The values that follow come from patent US11766434B2, “Pyrimidinone derivatives as CDC7 inhibitors” (Cancer Research Technology Limited, priority 2016, dated 2023).

Experiment [1] addresses T1, Cdc7/ASK (Homo sapiens, UniProt O00311). In words: Cdc7 biochemical assay Method 1: 384 well ELISA, MCM2 whole protein substrate, Phospho MCM2 (S53) antibody. The arrangement: purchased. The note with it: ATP 2 μM, 90 minutes, read-out: Biochemical method 1 (pIC50) (converted). As for the experimental part:
This protocol describes a method for assaying Cdc7/ASK for activity. The assay is a 384 well ELISA assay, utilising a whole protein substrate (MCM2) and an antibody against Phospho MCM2 (S53). This site is thought to be specific to Cdc7/ASK phosphorylation and the assay has been validated using knockout mutants.
• TBS: 25 mM Tris pH 7.2, 150 mM NaCl. (Dilute 10× stock by 1:10). • Wash Buffer: TBS+0.05% Tween 20. (Add 100 mL 1 M Tris pH 7.2, 120 mL 5 M NaCl and 2 mL 100% Tween 20 per 4 L). • Kinase Reaction Buffer: 50 mM Tris-HCl pH 8.5, 10 mM MgCl2, 1 mM DTT. (Dilute 10× stock by 1:10 and add 100 μL 1M DTT per 100 mL prior to assay). • Diethanolamine Buffer: 1 M diethanolamine pH 9.8, 0.5 mM MgCl2. • Stop Solution: 1 M NaOH. • MCM2 was expressed and purified in-house and used in the assay at a final assay concentration of 436 ng/well. • Cdc7/ASK is purchased from commercial suppliers and used in the assay at a final assay concentration of 37.97 ng/well or 20.63 nM. • ATP used as a final assay concentration of 2 μM. • Primary Antibody: Rabbit anti-Phospho MCM2 (S53 Antibody (BL3353)), is purchased from commercial suppliers at 0.2 mg/mL and used at a final assay concentration by diluting 1:800 in TBS. • Secondary Antibody: Anti-Rabbit/AP Antibody is supplied is purchased from commercial suppliers at 1 mg/mL and used at a final assay concentration by diluting 1:2000 in TBS. • Development Reagent: Dissolve one 20 mg PNPP tablet (Sigma, product N2765, 20 mg per tablet) per 20 mL diethanolamine Buffer (or one 5 mg PNPP tablet per 5 mL diethanolamine buffer). Cover in foil and leave shaking on a roller shaker at room temperature for up to an hour to dissolve. Methods • 1. Add 20 μL 1× working stock of Substrate (MCM2) in TBS to all wells of a clear, 384 well, Nickel-chelate microplate to give a final concentration of 250 ng/well. Incubate at room temperature for at least 1 hour. Plates can be pre-coated for 1 hour and stored at 4° C. for up to 8 days. • 2. Wash with TBS+0.05% Tween 20 (80 μL x 3). • 3. Add 2 μL 10× test compounds, including the positive control, in 40% DMSO/water to ‘test’ wells. Add 2 μL 40% DMSO/water to ‘control’ and ‘blank’ wells. The final DMSO concentration will be 4%. • 4. Add 13 μL CDCl7/ASK Kinase (1.5× stock) in Kinase Reaction Buffer to ‘test’ and ‘control’ wells to give a final concentration of […]. Add 13 μL Kinase Reaction Buffer to ‘blank’ wells. • 5. Add 5 μL ATP (4× stock) in Kinase Reaction Buffer to all wells to give a final concentration of 2 μM. • 6. Incubate at room temperature for 90 minutes. • 7. Wash with TBS+0.05% Tween 20 (80 μL x 3). • 8. Add 20 μL 1× working solution of Primary Antibody in TBS to all wells. Incubate at room temperature for 30 minutes. • 9. Wash with TBS+0.05% Tween 20 (80 μL x 3). • 10. Add 20 μL 1× working solution of Secondary Antibody in TBS to all wells. Incubate at room temperature for 30 minutes. • 11. Wash with TBS+0.05% Tween 20 (80 μL x 3). • 12. Add 20 μL 1× Development Reagent to all wells. • 13. Incubate at room temperature for 2 hours. Stop the reaction by adding 20 μL Stop Solution to all wells and record Absorbance on a Pherastar plate reader.
Percentage inhibition values were calculated from absorbance values, using the no compound (DMSO) and no enzyme control values as 0% and 100% inhibition, respectively. IC50 determination was performed with ExcelFit software (IDBS) using curve fit 205. Z′ factors were determined for each plate tested and were all above 0.5.

In experiment [2] the target is T2, Cdc7 (Homo sapiens, UniProt O00311). In words: Cdc7 cell pharmacodynamics assay Method 1: pS53MCM2 levels in HCT116 cells. It counts as cell-based. Set-up: endogenous in cells. The conditions noted are these: 6 hours treatment, read-out: Biomarker Method 1 (pEC50) (converted). The text has this:
This protocol describes a method to investigate the inhibition of Cdc7 activity of compounds by measuring pS53MCM2 levels in cells after treatment.
• HCT116 cells (wild type P53 positive) • McCoys 5A media (PAA Laboratories Ltd, E15-022) • 10% FCS (Sera Laboratories International Ltd, EU000F Batch: 108005) • 100× L-Glutamine (Invitrogen, 25030-024) • D-PBS without CaCl2 and MgCl2 (Invitrogen, ref. 14190-094) • Trypsin/EDTA (Invitrogen 25300-054) • 2% BSA in PBS • Cell Extraction Buffer (Invitrogen FNN0011) • Protease inhibitor cocktail (Sigma P-2714) • PMSF 0.3M stock in DMSO (Sigma P7626) • Antibody—rabbit pMCM2 Ser53 (Bethyl #A300-756A) • Antibody—goat MCM2 (Bethyl #A300-122A) • Antibody—goat Anti Rabbit IgG HRP (Perbio Science UK Ltd 31462) • 1×PBS • FACE Wash buffer (0.02% Triton X100 in 1×PBS) • SuperSignal ELISA Pico Chemiluminescent Substrate (Perbio Science UK Ltd 37070) Method • 72 hours prior to the start of the experiment plate 1×10^6 HCT116 cells in a 150 cm^2 flask in complete McCoys 5A media (+10% FCS+1× L-glutamine). • Plate 20,000 HCT116 cells per well in standard TC treated 96 well plate in 100 μL complete McCoys 5A media. • Allow cells to settle overnight in incubator set at 37° C. and 5% CO2. • Remove intermediate plate from fridge and place at 37° C. overnight to allow to equilibrate. • Cell treatment: cell assay plate 100 μL; daughter to cell transfer volume 3.33 μL; daughter volume 45 μL; mother plate to daughter volume 5 μL. • Once all cells are treated remove the cells to the incubator and incubate for 6 hours. • Dilute the capture antibody (total MCM2 #A300-122A) 1 in 250 in the required volume of PBS (5 mL per assay plate) and add 50 μL to each well of a Hybond plate excluding wells 12E to 12H. In these wells add 50 μL PBS. Seal the plate and incubate at room temperature fora minimum of 2 hours. • Defrost aliquot of Invitrogen Cell Extraction Buffer (FNN0011) on ice and supplement with appropriate volume of both Sigma protease inhibitor cocktail (P-2714) and PMSF (final cone 1 mM from a […] in DMSO). • After the 6 hour cell treatment time tap out the media from the assay plates and place them in the −70° C. freezer for at least 5 minutes. • Remove plates from freezer and add 20 μL of ice cold complete lysis buffer on ice. Incubate cells for 30 minutes at 4° C. • Add 80 μL per well 2% BSA. • Transfer 80 μL from the lysis plate to the same wells in the capture/ELISA plate. Cover with plate seal and incubate plates overnight at 4° C. • Wash plates with PBS, remove any residual remaining liquid and add 50 μL per well of pMCM2 Ser53 antibody (#A300-756A) diluted 1 in 100 in 2% BSA. Cover plate and incubate at room temperature for 2 hours with gentle shaking. • Wash plates with PBS, remove any residual remaining liquid and Incubate with 50 μL goat anti rabbit antibody (1 in 800 dilution in 2% BSA) for 1 hour at room temperature. • Wash plates with PBS, remove any residual remaining liquid and add 50 μL mixed SuperSignal Pico substrate. • Incubate each plate for 5 minutes at room temperature shielding the plates from direct light (with a cover plate). Read plates with the luminescent detection. Method 2

The target in experiment [3] is T2, Cdc7. Description: Cdc7 cell pharmacodynamics assay Method 3: pS53MCM2 levels in SW48 cells. It is filed as cell-based. The arrangement: endogenous in cells; host or cells: SW48. The note with it: 6 hours treatment, read-out: Biomarker Method 3 (pEC50) (converted). The source says: This protocol describes a method to investigate the inhibition of Cdc7 activity by measuring pS53MCM2 levels in cells, after treatment with compounds.
• SW48 cells • RPMI 1640 (Sigma, R5886) • 10% FCS (Sera Laboratories International Ltd, EU000F Batch: 108005) • 100× L-Glutamine (Invitrogen, 25030-024) • D-Glucose Solution (10%) (Sigma, G8644) • HEPES Buffer Solution (Sigma, 83264) • Sodium Pyruvate (Sigma, S8636) • PBS (Fisger, BP399-4) • Trypsin/EDTA (Invitrogen 25300-054) • 2% BSA in PBS • Cell Extraction Buffer (Invitrogen FNN0011) • Protease inhibitor cocktail (Sigma P-2714) • PMSF 0.3M stock in DMSO (Sigma P7626) • Antibody—rabbit pMCM2 Ser53 (Bethyl #A300-756A) • Antibody—goat MCM2 (Bethyl #A300-122A) • Antibody—goat Anti Rabbit IgG HRP (Perbio Science UK Ltd 31462) • SuperSignal ELISA Pico Chemiluminescent Substrate (Perbio Science UK Ltd 37070) Method • Plate 30,000 SW48 cells per well in standard TC treated 96 well plate in 100 μL complete RPMI 1640 medium. • Allow cells to settle overnight in incubator set at 37° C. and 5% CO2. • Cell treatment: prepare a 384 well plate containing 80 μl PBS/well. The PBS should be at room temperature—to be referred to as intermediate plate. Transfer 2 μL of compound from mother plate to intermediate (daughter plate) 1:40 dilution, then 5 μL intermediate to cell (daughter) plate. • Once all cells are treated place the cells back to the incubator and incubate for 6 hours. • Dilute the capture antibody (total MCM2 #A300-122A) 1 in 250 in the required volume of PBS (5 mL per assay plate, plus 5 mL for dead volume) and add 50 μL to each well of a Hybond plate. Seal the plate and incubate at room temperature for a minimum of 2 hours. • Defrost aliquot of Invitrogen Cell Extraction Buffer (FNN0011) on ice and supplement with appropriate volume of both Sigma protease inhibitor cocktail (P-2714) and PMSF (final cone 1 mM from a 1 M stock in DMSO). • After the 6 hour cell treatment time, tap out the media from the assay plates and place them in the −80° C. freezer for at least 5 minutes. • Remove plates from freezer and add 20 μL of ice cold complete lysis buffer, with the multidrop. Incubate cells for 30 minutes at 4° C. • Add 80 μL per well 2% BSA. • Flick out the remaining liquid from the capture plate and transfer 80 μL from the lysis plate to the same wells in the capture/ELISA plate, using the Biomek. Cover with plate seal and incubate plates overnight at 4° C. • Wash plates with PBS, remove any residual remaining liquid and add 50 μL per well of pMCM2 Ser53 antibody (#A300-756A) diluted 1 in 100 in 2% BSA. Cover plate and incubate at room temperature for 2 hours with gentle shaking. • Wash plates with PBS, remove any residual remaining liquid and Incubate with 50 μL goat anti rabbit antibody (1 in 800 dilution in 2% BSA), for 1 hour at room temperature. • Wash plates with PBS, remove any residual remaining liquid and add 50 μL mixed SuperSignal Pico substrate. • Incubate each plate for 5 minutes at room temperature shielding the plates from direct light (with a cover plate). Read plates with the luminescent detection. Results

For experiment [4], the target named is T1, Cdc7/ASK. In words: Cdc7 biochemical assay Method 3: off-chip mobility shift assay (MSA) run at Carna Biosciences. The arrangement: purchased Carna Biosciences; host or cells: baculovirus expression system. The conditions noted are these: MCM2 peptide 1000 nM, ATP 5 μM, 5 hours, read-out: Biochemical method 3 (pIC50) (converted). The procedure:
This protocol describes a method for assaying Cdc7/ASK for activity. The assay is an off-chip mobility shift assay (MSA) run at Carna Biosciences.
The test compound was dissolved in and diluted with dimethylsulfoxide (DMSO) to achieve 100-fold higher concentration which was specified by the sponsor. Then the solution was further 25-fold diluted with assay buffer to make the final test compound solution. Reference compounds for assay control were prepared similarly. 2. Kinase Cdc7/ASK: Full-length human Cdc7 [1-574(end) amino acids of accession number NP_003494.1] was co-expressed as N-terminal GST-fusion protein (92 kDa) with Dbf4(ASK) [1-674(end) amino acids of accession number NP_006707.1] using baculovirus expression system. GST-Cdc7 was purified by using glutathione sepharose chromatography. 3. Assay Reagents and Procedures Off-Chip Mobility Shift Assay (MSA) • 1) The […] were prepared with assay buffer (20 mM HEPES, 0.01% Triton X-100, 1 mM DTT, pH 7.5) and mixed and incubated in a well of polypropylene 384 well microplate for 5 hours at room temperature. • 2) […] of Termination Buffer (QuickScout Screening Assist MSA; Carna Biosciences) was added to the well. • 3) The reaction mixture was applied to LabChip system (Perkin Elmer), and the product and substrate peptide peaks were separated and quantitated. • 4) The kinase reaction was evaluated by the product ratio calculated from peak heights of product (P) and substrate (S) peptides (P/(P+S)). 4. Reaction Conditions
5. Data Analysis The readout value of reaction control (complete reaction mixture) was set as a 0% inhibition, and the readout value of background (Enzyme(−)) was set as a 100% inhibition, then the percent inhibition of each test solution was calculated. IC50 value was calculated from concentration vs. % Inhibition curves by fitting to a four parameter logistic curve. Results

T2 sequence (O00311 whole entry): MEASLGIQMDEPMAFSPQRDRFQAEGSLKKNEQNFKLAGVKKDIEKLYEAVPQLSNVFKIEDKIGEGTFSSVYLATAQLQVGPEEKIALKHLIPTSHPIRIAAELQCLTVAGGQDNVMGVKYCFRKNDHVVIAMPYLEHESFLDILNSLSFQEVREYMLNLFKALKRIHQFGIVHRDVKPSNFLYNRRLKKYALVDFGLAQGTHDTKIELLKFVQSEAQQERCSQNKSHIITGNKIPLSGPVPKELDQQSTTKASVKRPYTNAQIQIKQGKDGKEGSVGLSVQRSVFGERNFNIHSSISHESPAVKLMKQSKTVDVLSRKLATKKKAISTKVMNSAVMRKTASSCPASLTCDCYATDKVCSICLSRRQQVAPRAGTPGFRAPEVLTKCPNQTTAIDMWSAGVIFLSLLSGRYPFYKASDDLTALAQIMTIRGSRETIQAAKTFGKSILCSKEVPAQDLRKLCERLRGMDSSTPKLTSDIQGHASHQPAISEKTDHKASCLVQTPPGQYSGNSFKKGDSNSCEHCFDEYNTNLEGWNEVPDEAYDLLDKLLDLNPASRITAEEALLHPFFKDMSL
T2 sequence (Q9UBU7 whole entry partner): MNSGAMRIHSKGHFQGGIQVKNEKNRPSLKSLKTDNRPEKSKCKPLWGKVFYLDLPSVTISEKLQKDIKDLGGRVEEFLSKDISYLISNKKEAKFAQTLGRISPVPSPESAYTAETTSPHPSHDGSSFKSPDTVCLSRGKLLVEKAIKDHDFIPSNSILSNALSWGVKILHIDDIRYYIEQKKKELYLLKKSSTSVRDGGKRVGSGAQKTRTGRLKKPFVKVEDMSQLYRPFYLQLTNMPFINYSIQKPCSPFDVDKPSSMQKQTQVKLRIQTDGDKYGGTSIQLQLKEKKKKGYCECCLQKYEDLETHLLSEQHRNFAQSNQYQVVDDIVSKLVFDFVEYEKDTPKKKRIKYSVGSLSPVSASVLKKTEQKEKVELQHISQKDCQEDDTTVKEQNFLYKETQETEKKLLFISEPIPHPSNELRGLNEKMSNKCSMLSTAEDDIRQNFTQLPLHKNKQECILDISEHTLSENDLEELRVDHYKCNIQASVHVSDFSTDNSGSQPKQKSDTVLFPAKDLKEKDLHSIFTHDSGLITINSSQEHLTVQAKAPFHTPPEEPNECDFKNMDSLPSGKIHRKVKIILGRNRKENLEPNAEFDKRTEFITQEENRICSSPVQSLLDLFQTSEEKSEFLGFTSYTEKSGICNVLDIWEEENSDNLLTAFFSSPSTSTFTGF
T1 sequence (O00311 whole entry): as the sequence (O00311 whole entry) above
T1 sequence (Q9UBU7 whole entry partner): as the sequence (Q9UBU7 whole entry partner) above

As for `Cc1ncoc1-c1nc(C2CCOCC2)c(Cl)c(=O)[nH]1` [Compound 12, 5-chloro-2-(4-methyloxazol-5-yl)-4-tetrahydropyran-4-yl-1H-pyrimidin-6-one], the IC50 at Cdc7/ASK [1] is 363 nM. In addition, on Cdc7 [2], the EC50 is 3.63 µM.
`C[C@@H]1COCCN1c1nc(-c2cn[nH]c2Cl)[nH]c(=O)c1Cl` [Compound 42, 5-chloro-2-(5-chloro-1H-pyrazol-4-yl)-4-[(3R)-3-methylmorpholin-4-yl]-1H-pyrimidin-6-one]: the EC50 at Cdc7 [3] was 389 nM. The IC50 at Cdc7/ASK [4] is 3.8 nM.
For `Cc1nccn1-c1nc(N2CCOC[C@H]2C)c(Cl)c(=O)[nH]1` [Compound 56, 5-chloro-2-(2-methylimidazol-1-yl)-4-[(3R)-3-methylmorpholin-4-yl]-1H-pyrimidin-6-one] the same measures were 4170 nM and 44.7 nM.
